Measurements as given in patent US9745299B2, “Substituted tricyclic benzimidazoles as kinase inhibitors” (SELVITA SA, priority 2012, dated 2017).
Where a name gives a salt, the structure may show the parent alone.

How the values were obtained:
[1] = biological target: T1, CDK2/CyclinE (Homo sapiens, UniProt P24941); assay: ADP-Glo Kinase Assay, CDK2/CyclinE; format: biochemical; conditions: read-out: % inhibition at 1 μM CDK2/CyclinE
T1 construct: purchased Millipore, Billerica, Mass., USA
Procedure: (§1) Testing of the compounds described in this invention was carried out using the ADP-Glo™ Kinase Assay from Promega Corporation (Madison, Wis., USA).
(§2) The ADP-Glo™ Kinase Assay is a luminescent ADP detection assay to measure kinase activity by quantifying the amount of ADP produced during a kinase reaction. The kinase assay is performed in kinase assay buffer (5 mM MOPS, pH 7.5, 5 mM MgCl2, 0.4 mM EDTA, 1.5 mM DTT). Test samples initially dissolved in DMSO at 10 mM were diluted with the assay buffer to 1000 nM. A 30 μL volume/well of a mixture of substrates containing ATP (final ATP concentration in each kinase assay was equal to its apparent ATP Km).
(§3) The assay was performed in two steps: first, after the kinase reaction, an equal volume of ADP-Glo™ Reagent was added to terminate the kinase reaction and deplete the remaining ATP. Second, the Kinase Detection Reagent was added to simultaneously convert ADP to ATP and allowed the newly synthesized ATP to be measured using a luciferase/luciferin reaction. The luminescent signal generated was proportional to the ADP concentration produced and was correlated with kinase activity.

[2] = biological target: T2, CDK5/p25 (Homo sapiens, UniProt Q00535); assay: ADP-Glo Kinase Assay, CDK5/p25; format: biochemical; conditions: read-out: % inhibition at 1 μM CDK5/p25; further: ATP at apparent Km (12 µM)
T2 construct: purchased Millipore, Billerica, Mass., USA
T2 sequence (Q00535 whole entry): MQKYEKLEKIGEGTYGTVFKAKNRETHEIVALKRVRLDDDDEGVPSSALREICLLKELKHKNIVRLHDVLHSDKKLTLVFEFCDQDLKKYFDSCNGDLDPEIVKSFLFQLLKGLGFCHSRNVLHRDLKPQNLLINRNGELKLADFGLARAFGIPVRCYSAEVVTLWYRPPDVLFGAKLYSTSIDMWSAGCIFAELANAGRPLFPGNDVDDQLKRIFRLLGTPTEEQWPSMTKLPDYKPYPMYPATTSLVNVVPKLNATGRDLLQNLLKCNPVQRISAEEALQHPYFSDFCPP
T2 sequence (Q15078 99-307 partner limits assumed): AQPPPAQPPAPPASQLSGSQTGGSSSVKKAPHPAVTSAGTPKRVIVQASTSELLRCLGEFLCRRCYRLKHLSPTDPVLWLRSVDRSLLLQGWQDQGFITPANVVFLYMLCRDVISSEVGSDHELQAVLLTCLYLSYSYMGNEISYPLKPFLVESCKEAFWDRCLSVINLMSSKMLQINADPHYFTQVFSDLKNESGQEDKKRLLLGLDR
Procedure: as §1, §2, §3

[3] = biological target: T3, CDK7/CyclinH/MAT1 (Homo sapiens, UniProt P50613); assay: ADP-Glo Kinase Assay, CDK7/CyclinH/MAT1; format: biochemical; conditions: read-out: % inhibition at 1 μM CDK7/CyclinH/MAT1
T3 construct: purchased Millipore, Billerica, Mass., USA
T3 sequence (P50613 whole entry): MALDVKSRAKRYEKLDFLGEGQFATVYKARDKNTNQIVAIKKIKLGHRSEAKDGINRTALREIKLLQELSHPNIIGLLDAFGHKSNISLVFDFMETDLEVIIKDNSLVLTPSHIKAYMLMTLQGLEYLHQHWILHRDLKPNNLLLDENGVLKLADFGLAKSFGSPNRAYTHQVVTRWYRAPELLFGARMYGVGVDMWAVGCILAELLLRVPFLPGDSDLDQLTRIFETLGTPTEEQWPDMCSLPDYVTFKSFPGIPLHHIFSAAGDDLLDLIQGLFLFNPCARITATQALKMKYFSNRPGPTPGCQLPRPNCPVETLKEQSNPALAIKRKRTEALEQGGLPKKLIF
T3 sequence (P51946 whole entry partner): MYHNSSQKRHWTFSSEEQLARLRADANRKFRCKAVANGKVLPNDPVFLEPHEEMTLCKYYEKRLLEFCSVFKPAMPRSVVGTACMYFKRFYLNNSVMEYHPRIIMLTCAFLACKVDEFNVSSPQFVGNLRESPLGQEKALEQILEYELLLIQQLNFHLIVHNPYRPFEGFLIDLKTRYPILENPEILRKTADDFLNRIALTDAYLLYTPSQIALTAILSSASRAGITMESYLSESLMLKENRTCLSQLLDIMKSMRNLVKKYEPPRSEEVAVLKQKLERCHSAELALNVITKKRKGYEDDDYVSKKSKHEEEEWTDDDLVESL
T3 sequence (P51948 whole entry partner): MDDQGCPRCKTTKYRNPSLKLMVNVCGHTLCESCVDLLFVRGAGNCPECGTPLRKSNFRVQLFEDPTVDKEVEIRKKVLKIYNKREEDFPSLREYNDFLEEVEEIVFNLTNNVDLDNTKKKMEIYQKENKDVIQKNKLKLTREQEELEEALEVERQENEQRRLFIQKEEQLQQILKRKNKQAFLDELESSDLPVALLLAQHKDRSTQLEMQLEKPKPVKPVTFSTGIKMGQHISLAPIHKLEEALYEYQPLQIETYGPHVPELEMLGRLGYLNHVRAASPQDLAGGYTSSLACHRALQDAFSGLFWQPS
Procedure: as §1, §2, §3

[4] = biological target: T4, CDK8/CyclinC (Homo sapiens, UniProt P49336); assay: ADP-Glo Kinase Assay, CDK8/CyclinC; format: biochemical; conditions: read-out: % inhibition at 1 μM CDK8/CyclinC; further: ATP at apparent Km (53 µM)
T4 construct: purchased ProQinase, Freiburg, Germany
T4 sequence (P49336 whole entry): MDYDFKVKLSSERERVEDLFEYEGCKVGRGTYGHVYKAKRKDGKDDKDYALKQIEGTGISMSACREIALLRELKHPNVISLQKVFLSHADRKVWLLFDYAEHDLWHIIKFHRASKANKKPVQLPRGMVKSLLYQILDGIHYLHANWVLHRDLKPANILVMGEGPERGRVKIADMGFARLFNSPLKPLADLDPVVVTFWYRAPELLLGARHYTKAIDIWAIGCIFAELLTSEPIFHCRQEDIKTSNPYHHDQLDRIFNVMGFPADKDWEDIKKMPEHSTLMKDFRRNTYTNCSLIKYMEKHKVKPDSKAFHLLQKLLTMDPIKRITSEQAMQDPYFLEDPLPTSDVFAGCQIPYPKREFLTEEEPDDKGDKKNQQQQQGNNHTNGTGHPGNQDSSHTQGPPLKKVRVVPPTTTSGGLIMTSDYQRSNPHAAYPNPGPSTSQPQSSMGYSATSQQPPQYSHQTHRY
T4 sequence (P24863 whole entry partner): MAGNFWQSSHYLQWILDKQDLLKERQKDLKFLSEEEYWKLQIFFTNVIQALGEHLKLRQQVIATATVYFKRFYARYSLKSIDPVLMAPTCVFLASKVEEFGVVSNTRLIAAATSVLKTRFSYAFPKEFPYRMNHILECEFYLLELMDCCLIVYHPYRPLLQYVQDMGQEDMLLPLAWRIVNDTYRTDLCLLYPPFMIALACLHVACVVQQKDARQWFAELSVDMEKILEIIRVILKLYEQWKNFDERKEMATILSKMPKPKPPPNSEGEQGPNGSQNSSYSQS
Procedure: as §1, §2, §3

[5] = system: HCT116 cells; assay: MTS viability assay, HCT116; format: cell-based; conditions: Homo sapiens, HCT-116, HCT116, 72 hour incubation, read-out: IC50 [μM] HCT116 ED50
Source text: (§4) The viability of CDK8 expressing cells can be evaluated using a tetrazolium salt reduction cell-based assay. In viable cells this colorimetric assay can measure mitochondrial reduction of a tetrazolium component (MTS) into an […] formazan product. For MTS viability assay, human colon cancer cell lines were used (SW480 and HCT116 cell lines), containing elevated levels of CDK8 protein and highly dependent on its expression for proliferation [see, Firenstein et al. Nature 455 (25):547-551, (2008)]. These cell lines were used to determine the activity of the compounds provided herein to inhibit CDK8 in intact cells. Human tumor cell lines were obtained from ATCC (Rockville Md. USA). In each case, and by methods known to those practiced in the art of cell culture, vaiability was measured after 72 hour incubation with the compounds provided herein using a standard MTS protocol (CellTiter 96® AQueous Non-Radioactive Cell Proliferation Assay).
(§5) Briefly, cells were plated at 10,000-20,000 cells per well in DMEM medium supplemented with 10% fetal bovine serum. The compound plate was set up by aliquoting into column 1 of a 96-well plate, the negative control (DMSO), aliquoting into column 12 the positive control, and titrating the test compound in serial dilutions into columns 2-11. An aliquot from each well of the compound plate was transferred to the plated cells and then incubated at 37° C. in 5% CO2. 20 μL of MTS tetrazolium was added to each well of optical plate and the cells were incubated at 37° C. in 5% CO2 for 2 hours. The absorbance was measured at 490 nm using a microplate reader.

[6] = system: SW480 cells; assay: MTS viability assay, SW480; format: cell-based; conditions: Homo sapiens, SW480, 72 hour incubation, read-out: IC50 [μM] SW-480 ED50
Source text: as §4, §5

[7] = biological target: T5, CDK1/CyclinB (Homo sapiens, UniProt P06493); assay: ADP-Glo Kinase Assay, CDK1/CyclinB; format: biochemical; conditions: read-out: % inhibition at 1 μM CDK1/CyclinB; further: ATP at apparent Km (20 µM)
T5 construct: purchased Millipore, Billerica, Mass., USA
T5 sequence (P06493 whole entry): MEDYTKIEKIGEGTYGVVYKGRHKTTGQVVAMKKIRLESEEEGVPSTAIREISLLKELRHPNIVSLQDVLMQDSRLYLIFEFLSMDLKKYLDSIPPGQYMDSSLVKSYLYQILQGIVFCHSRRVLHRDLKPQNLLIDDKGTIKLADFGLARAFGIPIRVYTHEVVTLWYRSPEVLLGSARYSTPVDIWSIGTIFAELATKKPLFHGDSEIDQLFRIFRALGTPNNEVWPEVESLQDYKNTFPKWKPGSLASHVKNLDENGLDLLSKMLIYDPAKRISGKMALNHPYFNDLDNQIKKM
T5 sequence (P14635 whole entry partner): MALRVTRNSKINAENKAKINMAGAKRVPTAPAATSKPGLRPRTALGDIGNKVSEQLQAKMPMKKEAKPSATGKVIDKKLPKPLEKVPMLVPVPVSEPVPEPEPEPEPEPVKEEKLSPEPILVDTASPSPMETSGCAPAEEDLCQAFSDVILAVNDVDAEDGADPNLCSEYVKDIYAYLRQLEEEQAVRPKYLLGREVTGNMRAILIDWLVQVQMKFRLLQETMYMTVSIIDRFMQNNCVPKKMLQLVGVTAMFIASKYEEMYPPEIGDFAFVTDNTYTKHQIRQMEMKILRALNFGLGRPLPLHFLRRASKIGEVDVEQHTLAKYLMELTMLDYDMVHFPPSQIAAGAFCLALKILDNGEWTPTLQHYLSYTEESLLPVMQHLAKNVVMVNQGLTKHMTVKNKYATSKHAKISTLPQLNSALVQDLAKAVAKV
Procedure: Testing of the compounds described in this invention was carried out using the ADP-Glo™ Kinase Assay from Promega Corporation (Madison, Wis., USA). […] The ADP-Glo™ Kinase Assay is a luminescent ADP detection assay to measure kinase activity by quantifying the amount of ADP produced during a kinase reaction. The kinase assay is performed in kinase assay buffer (5 mM MOPS, pH 7.5, 5 mM MgCl2, 0.4 mM EDTA, 1.5 mM DTT). Test samples initially dissolved in DMSO at 10 mM were diluted with the assay buffer to 1000 nM. A 30 μL volume/well of a mixture of substrates containing ATP (final ATP concentration in each kinase assay was equal to its apparent ATP Km). […] The assay was performed in two steps: first, after the kinase reaction, an equal volume of ADP-Glo™ Reagent was added to terminate the kinase reaction and deplete the remaining ATP. Second, the Kinase Detection Reagent was added to simultaneously convert ADP to ATP and allowed the newly synthesized ATP to be measured using a luciferase/luciferin reaction. The luminescent signal generated was proportional to the ADP concentration produced and was correlated with kinase activity.

[8] = biological target: T6, CDK9/CyclinT (Homo sapiens, UniProt P50750); assay: ADP-Glo Kinase Assay, CDK9/CyclinT; format: biochemical; conditions: read-out: % inhibition at 1 μM CDK9/CyclinT; further: ATP at apparent Km (26 µM)
T6 construct: purchased Proqinase, Freiburg, Germany
T6 sequence (P50750 whole entry): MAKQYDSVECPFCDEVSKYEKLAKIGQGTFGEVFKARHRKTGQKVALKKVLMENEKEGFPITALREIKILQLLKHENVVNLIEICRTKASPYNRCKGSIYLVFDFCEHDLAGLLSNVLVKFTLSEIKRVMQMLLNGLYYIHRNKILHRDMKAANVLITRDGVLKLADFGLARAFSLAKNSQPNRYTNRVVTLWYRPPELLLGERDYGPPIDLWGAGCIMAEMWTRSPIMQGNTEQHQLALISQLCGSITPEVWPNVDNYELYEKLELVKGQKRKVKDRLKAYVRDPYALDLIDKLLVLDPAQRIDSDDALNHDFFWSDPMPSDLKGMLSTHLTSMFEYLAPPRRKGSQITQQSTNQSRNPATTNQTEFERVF
T6 sequence (O60563 whole entry partner): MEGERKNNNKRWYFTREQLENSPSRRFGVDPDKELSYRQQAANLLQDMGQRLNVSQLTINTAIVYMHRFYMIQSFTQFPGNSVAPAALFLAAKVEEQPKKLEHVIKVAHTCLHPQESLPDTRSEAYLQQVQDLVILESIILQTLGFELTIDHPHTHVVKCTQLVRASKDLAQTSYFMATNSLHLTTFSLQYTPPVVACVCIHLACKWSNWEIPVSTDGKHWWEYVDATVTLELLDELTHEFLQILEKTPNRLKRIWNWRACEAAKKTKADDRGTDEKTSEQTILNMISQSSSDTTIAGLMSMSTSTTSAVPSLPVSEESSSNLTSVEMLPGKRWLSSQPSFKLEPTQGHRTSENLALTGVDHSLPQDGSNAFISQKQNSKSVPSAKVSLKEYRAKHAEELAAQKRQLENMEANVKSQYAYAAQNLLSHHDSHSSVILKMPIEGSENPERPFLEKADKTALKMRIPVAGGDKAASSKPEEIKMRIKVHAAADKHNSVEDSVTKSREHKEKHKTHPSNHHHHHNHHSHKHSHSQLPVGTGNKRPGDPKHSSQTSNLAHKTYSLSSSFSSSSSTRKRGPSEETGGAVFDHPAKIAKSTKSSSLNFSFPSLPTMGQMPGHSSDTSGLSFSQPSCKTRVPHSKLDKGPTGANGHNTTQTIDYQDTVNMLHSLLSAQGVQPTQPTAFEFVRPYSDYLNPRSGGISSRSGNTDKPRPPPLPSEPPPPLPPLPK
Procedure: as §1, §2, §3

SMILES	inhibition at 1 µM [1]	inhibition at 1 µM [2]	inhibition at 1 µM [3]	inhibition at 1 µM [4]	IC50 [5]	IC50 [6]	inhibition at 1 µM [7]	inhibition at 1 µM [8]
NCCNc1nc2c(Br)c(Br)c(Br)c3c2n1CCC3 [Example 1A, N-(7,8,9-tribromo-5,6-dihydro-4H-imidazo[4,5,1-ij]quinolin-2-yl)ethane-1,2-diamine hydrochloride]	0%	0%	0%	52%	1.2 µM	1.9 µM	0%	33%
Cc1c(Br)c2c3c(nc(N4CCNCC4)n3CCC2)c1Br [Example 1AX]	1%			70%	1.5 µM		7%	7%
NCCCNc1nc2c(Br)c(Br)c(Br)c3c2n1CCC3 [Example 1C]	8%			52%			0%	9%
NCCNc1nc2c(I)c(Br)c(Br)c3c2n1CCC3 [Example 1W]	0%	2%	0%	100%			7%	13%
O=[N+]([O-])c1c(Br)c(Br)c2c3c1nc(N1CCNCC1)n3CCC2 [Example 1X]	8%	27%	0%	71%	6.7 µM	1.4 µM	15%	9%
Brc1c(Br)c2c3c(nc(N4CCNCC4)n3CCC2)c1I [Example 1Y]	11%	4%	0%	100%	1.3 µM	0.7 µM	32%	39%
OC1CCN(c2nc3c(Br)c(Br)c(Br)c4c3n2CCC4)CC1 [Example 3A, 1-(7,8,9-tribromo-5,6-dihydro-4H-imidazo[4,5,1-ij]quinolin-2-yl)piperidin-4-ol]	4%	0%	3%	61%			0%	1%
C[C@H]1CN(c2nc3c(Br)c(Br)c(Br)c4c3n2CCC4)CCN1 [Example 3AA]	20%			96%	0.4 µM	1.3 µM		21%
C[C@@H]1CN(c2nc3c(Br)c(Br)c(Br)c4c3n2CCC4)CCN1 [Example 3AB]	27%			84%	0.4 µM	1.4 µM		47%
C[C@@H]1CN(c2nc3c(I)c(Br)c(Br)c4c3n2CCC4)CCN1 [Example 3AD]	16%			100%	0.6 µM	1.3 µM		42%
CN1CCN(c2nc3c(I)c(Br)c(Br)c4c3n2CCC4)CC1 [Example 3AM]	40%			100%	2.8 µM	4 µM		39%
Brc1c(Br)c2c3c(nc(N4CCCCC4)n3CCC2)c1Br [Example 3D]	0%	0%	11%	87%			2%	20%
